From patent US10738028B2, “Spiro three-membered ring, spiro five-membered ring peptide deformylase inhibitor and use thereof in antibacteria and anti-tumor” (priority 2016, dated 2020)

Columns and labels:
Format in all cases: cell-based
[1] = test system: Enterococcus faecium (EFM); test: MIC, two-fold agar dilution (CLSI), clinical isolates
In short: (§1)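 Samples are serially diluted two-fold in agar following CLSI guidance. Plates are then inoculated with the tested strains. The lowest inhibiting concentration is recorded as MIC.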

[2] = test system: methicillin-resistant Staphylococcus epidermidis (MRSE); test: as above
In short: as §1

[3] = test system: Enterococcus faecalis (EFA); test: as above
In short: as §1

[4] = test system: Streptococcus pneoumoniae (SPN); test: as above
In short: as §1

[5] = test system: Moraxella catarrhalis (BCA); test: as above
In short: as §1

[6] = test system: methicillin-sensitive Staphylococcus epidermidis (MSSE); test: as above
In short: as §1

[7] = test system: methicillin-resistant Staphylococcus aureus (MRSA); test: as above
In short: as §1

[8] = test system: methicillin-sensitive Staphylococcus aureus (MSSA); test: as above
In short: as §1

[9] = test system: Escherichia coli (including ESBLs, non-ESBLs); test: as above
In short: as §1

[10] = test system: A549 lung cancer cell line; test: CCK-8 proliferation inhibition; conditions: Homo sapiens, A549, 72 h, concentration of 30 μM
In short: (§2)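 Plating at 2000 cells/well, then incubation overnight at 37° C. Next, a range of compound concentrations for 72 hours (control 1‰ DMSO). Finally, medium decanted and CCK-8 diluted 1:10 added.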

[11] = test system: BEL-7402 liver cancer cell line; test: CCK-8 proliferation inhibition; conditions: concentration of 30 μM
In short: as §2

[12] = test system: MGC-803 gastric cancer cell line; test: CCK-8 proliferation inhibition; conditions: Homo sapiens, MGC-803, 72 h, concentration of 30 μM
In short: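 Using media specific to each line (1640 for MGC-803 and Jurkat, F12 for PC3, DMEM high glucose for MCF-7, each with 10% newborn bovine serum), cells at 2000/well were treated for 72 h with serially formulated compounds, then assessed with CCK-8 diluted 1:10.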

[13] = test system: HCT-116 colorectal cancer cell line; test: CCK-8 proliferation inhibition; conditions: concentration of 30 μM, 72 hours, CCK-8
In short: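 Proliferation over 72 hours of compound treatment was measured with CCK-8 against a 1‰ DMSO control.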

In the case of `CCCC[C@H](CC(=O)NO)C(=O)N1CC2(CC2)C[C@H]1C(=O)Nc1nc(C)cs1` [Example 51, (S)-5-((R)-2-(2-(hydroxyamino)-2-oxoethyl)hexanoyl)-N-(4-methylthiazol-2-yl)-5-spiro[2.4]heptane-6-carboxamide], the Anti-bacterial activity (MIC), strain EFM 15-1 ([1]; clinical isolate EFM 15-1) is reported as 2 µg/mL, the Anti-bacterial activity (MIC), strain EFM 15-2 ([1]; clinical isolate EFM 15-2) is reported as 2 µg/mL and the Anti-bacterial activity (MIC), strain EFM 15-3 ([1]; clinical isolate EFM 15-3) is reported as 0.5 µg/mL. For the same molecule, the Anti-bacterial activity (MIC), strain EFM 15-4 ([1]; clinical isolate EFM 15-4) was 2 µg/mL, the Anti-bacterial activity (MIC), strain EFM 15-5 ([1]; clinical isolate EFM 15-5) was 1 µg/mL and the Anti-bacterial activity (MIC), strain EFM 15-6 ([1]; clinical isolate EFM 15-6) was 2 µg/mL. It also gave an Anti-bacterial activity (MIC), strain MRSE 15-1 ([2]; clinical isolate MRSE 15-1) of 0.06 µg/mL, an Anti-bacterial activity (MIC), strain MRSE 15-2 ([2]; clinical isolate MRSE 15-2) of 0.25 µg/mL and an Anti-bacterial activity (MIC), strain MRSE 15-3 ([2]; clinical isolate MRSE 15-3) of 0.25 µg/mL. The Anti-bacterial activity (MIC), strain MRSE 15-7 ([2]; clinical isolate MRSE 15-7) was 0.25 µg/mL, the Anti-bacterial activity (MIC), strain EFA 15-1 ([3]; clinical isolate EFA 15-1) was 8 µg/mL and the Anti-bacterial activity (MIC), strain EFA 15-2 ([3]; clinical isolate EFA 15-2) was 8 µg/mL. For the same molecule, the Anti-bacterial activity (MIC), strain EFA 15-3 ([3]; clinical isolate EFA 15-3) was 2 µg/mL, the Anti-bacterial activity (MIC), strain EFA 15-4 ([3]; clinical isolate EFA 15-4) was 8 µg/mL and the Anti-bacterial activity (MIC), strain EFA 15-5 ([3]; clinical isolate EFA 15-5) was 8 µg/mL. It also gave an Anti-bacterial activity (MIC), strain EFA 15-6 ([3]; clinical isolate EFA 15-6) of 8 µg/mL, an Anti-bacterial activity (MIC), strain EFA 15-9 ([3]; clinical isolate EFA 15-9) of 8 µg/mL and an Anti-bacterial activity (MIC), strain SPN 16-2 ([4]; clinical isolate SPN 16-2) of 8 µg/mL. The Anti-bacterial activity (MIC), strain SPN 16-4 ([4]; clinical isolate SPN 16-4) was 0.5 µg/mL, the Anti-bacterial activity (MIC), strain BCA 14-1 ([5]; clinical isolate BCA 14-1) was 2 µg/mL and the Anti-bacterial activity (MIC), strain BCA 14-4 ([5]; clinical isolate BCA 14-4) was 2 µg/mL. It also gave an Anti-bacterial activity (MIC), strain BCA 14-5 ([5]; clinical isolate BCA 14-5) of 0.5 µg/mL, an Anti-bacterial activity (MIC), strain BCA 14-6 ([5]; clinical isolate BCA 14-6) of 1 µg/mL and an Anti-bacterial activity (MIC), strain BCA 14-7 ([5]; clinical isolate BCA 14-7) of 0.5 µg/mL. It also gave an Anti-bacterial activity (MIC), strain BCA 14-8 ([5]; clinical isolate BCA 14-8) of 1 µg/mL, an Anti-bacterial activity (MIC), strain BCA 14-10 ([5]; clinical isolate BCA 14-10) of 0.5 µg/mL and an Anti-bacterial activity (MIC), strain MSSE 15-3 ([6]; clinical isolate MSSE 15-3) of 0.125 µg/mL. It also gave an Anti-bacterial activity (MIC), strain MSSE 15-4 ([6]; clinical isolate MSSE 15-4) of 0.125 µg/mL, an Anti-bacterial activity (MIC), strain MSSE 15-5 ([6]; clinical isolate MSSE 15-5) of 0.06 µg/mL and an Anti-bacterial activity (MIC), strain MSSE 15-6 ([6]; clinical isolate MSSE 15-6) of 0.06 µg/mL. The Anti-bacterial activity (MIC), strain MRSA 15-1 ([7]; clinical isolate MRSA 15-1) was 0.25 µg/mL, the Anti-bacterial activity (MIC), strain MRSA 15-2 ([7]; clinical isolate MRSA 15-2) was 1 µg/mL and the Anti-bacterial activity (MIC), strain MRSA 15-3 ([7]; clinical isolate MRSA 15-3) was 0.2 µg/mL. For the same molecule, the Anti-bacterial activity (MIC), strain MRSA 15-4 ([7]; clinical isolate MRSA 15-4) was 0.5 µg/mL, the Anti-bacterial activity (MIC), strain MSSA 15-3 ([8]; clinical isolate MSSA 15-3) was 0.25 µg/mL and the Anti-bacterial activity (MIC), strain MSSA 15-4 ([8]; clinical isolate MSSA 15-4) was 0.125 µg/mL. The Anti-bacterial activity (MIC), strain MSSA 15-5 ([8]; clinical isolate MSSA 15-5) was 0.06 µg/mL, the Anti-bacterial activity (MIC), strain MSSA 15-6 ([8]; clinical isolate MSSA 15-6) was 0.5 µg/mL and the Anti-bacterial activity (MIC), strain ECO+ 15-1 ([9]; clinical isolate ECO+ 15-1) was 16 µg/mL. The Anti-bacterial activity (MIC), strain ECO+ 15-2 ([9]; clinical isolate ECO+ 15-2) was > 32 µg/mL, the Anti-bacterial activity (MIC), strain ECO+ 15-3 ([9]; clinical isolate ECO+ 15-3) was > 32 µg/mL and the Anti-bacterial activity (MIC), strain ECO+ 15-4 ([9]; clinical isolate ECO+ 15-4) was 32 µg/mL. For the same molecule, the Anti-bacterial activity (MIC), strain ECO− 15-1 ([9]; clinical isolate ECO− 15-1) was > 32 µg/mL, the Anti-bacterial activity (MIC), strain ECO− 15-2 ([9]; clinical isolate ECO− 15-2) was > 32 µg/mL and the Anti-bacterial activity (MIC), strain ECO− 15-3 ([9]; clinical isolate ECO− 15-3) was > 32 µg/mL. The Anti-bacterial activity (MIC), strain ECO− 15-4 ([9]; clinical isolate ECO− 15-4) was > 32 µg/mL, the inhibition at 30 µM [10] was 44% and the inhibition at 30 µM ([11]; Homo sapiens, Bel-7402, 72 h) was > 50%. The “Inhibition of proliferation, Liver cancer BEL-7402” value ([11]; 72 hours, 30 µM) was 68%, the inhibition at 30 µM [12] was 40% and the inhibition at 30 µM ([13]; Homo sapiens, HCT-116, 72 h, read-out: HCT116 inhibition rate/%) was > 50%. It also gave an HCT116 inhibition rate/% ([13]; 30 µM) of 65%.
